Test results taken from article PMC12257073 (Cancer Research Communications, 2025).
Where two headings read alike, the source gives them in different places.

Experiments:
TP53-mutated AML = settings: cited from earlier work
[1] = Adverse events (treatment-related and all-cause) and dose-limiting toxicities, NCI CTCAE version 4.0; settings: all treated patients, TP-0903 + decitabine
Experimental: The phase 1b portion of the study used a standard 3 + 3 dose-escalation design with a starting dose level 1 (DL1) of 37 mg oral daily TP-0903 (Supplementary Table S2) based on experience with 50 mg oral daily as a single agent in patients with solid tumors ([25]). Dose-limiting toxicities (DLT) were evaluated to establish the dose brought forward for an expansion cohort (phase 2). Seven patients were enrolled in the phase 1b study, which was completed in January 2021 with the decision to move forward with an expansion cohort of 37 mg oral daily. Across the phase 1b and phase 2 studies, 15 patients were enrolled and started on 37 mg TP-0903 oral daily on days 1 to 21 (group 1). […] One additional patient was enrolled at this time but was inadvertently started on 25 mg TP-0903 oral daily on days 1 to 21. […] In May 2021, an amendment was approved to allow enrollment of a new group 2 at 25mg oral daily on days 1 to 21 of TP-0903 (DL-1) in stage 2 of the phase 2 study.
Clinical response was assessed according to the modified 2017 European LeukemiaNet AML criteria ([26]). The primary endpoint was achievement of CR within six cycles of therapy. Secondary endpoints included toxicity, duration of response, OS, and the proportion of eligible patients who effectively transitioned to allogeneic stem cell transplantation. Exploratory endpoints included pharmacokinetics (PK), correlative genetic, and biochemical data; correlations between morphologic remission, spectral flow cytometry, and mutational remission; and duration of remission or survival. […] Adverse events (AE) were graded according to the NCI Common Terminology Criteria for Adverse Events version 4.0 ([27]).

## Nc1ncn([C@@H]2O[C@H](CO)[C@@H](O)[C@H]2O)c(=O)n1 [azacitidine]
TP53-mutated AML; TP53-mutated patients, azacitidine
  Median OS: 7.9 months

## Nc1ncn([C@H]2C[C@H](O)[C@@H](CO)O2)c(=O)n1 [decitabine, reference compound]
[1]
  Serious AEs related to decitabine: only one patient had a serious AE related to decitabine (grade 3 pneumonia)

## c1cn2cc(-c3ccc4cn[nH]c4c3)nc(Nc3ccc(N4CCOCC4)cc3)c2n1 [entospletinib]
TP53-mutated AML; entospletinib and a 10-day course of decitabine, complex karyotype AML with a TP53 mutation
  CR + CRi rate: 17.1%
TP53-mutated AML; entospletinib combined with decitabine, patients with mutant TP53
  Median OS: 6.5 months

## COCC1(CO)C(=O)C2CCN1CC2 (stereo not drawn) [eprenetapopt]
TP53-mutated AML; eprenetapopt combined with azacitidine
  Median OS: less than 1 year
TP53-mutated AML; eprenetapopt, mutant p53
  CR rate: ≤ 17%

## CC1(C)CCC(CN2CCN(c3ccc(C(=O)NS(=O)(=O)c4ccc(NCC5CCOCC5)c([N+](=O)[O-])c4)c(Oc4cnc5[nH]ccc5c4)c3)CC2)=C(c2ccc(Cl)cc2)C1 [venetoclax]
TP53-mutated AML; venetoclax added to HMAs, no difference vs HMA alone
  Median OS: approximately 5.2 months
TP53-mutated AML; venetoclax added to HMAs
  CR + CRi rate: 55%
TP53-mutated AML; venetoclax and azacitidine, TP53-mutated patients with poor-risk cytogenetics
  Median OS: 5.2 months
TP53-mutated AML; venetoclax in combination with azacitidine, older or medically unfit patients with AML
  Median OS: ≤ 17.5 months
TP53-mutated AML; venetoclax plus azacitidine, patients with mutant TP53
  CR + CRi rate: 55%

## magrolimab
TP53-mutated AML; magrolimab and azacitidine, TP53-mutated patients
  Median OS: 9.8 months
